Experiment [1] is filed under the species Homo sapiens. Nature of the experiment: Activation of recombinant His-tagged human cytosolic GPX4 U46C mutant expressed in Escherichia coli M15 assessed as increase in oxidized glutathione-mediated oxidation of NADPH to NADP+ at 200 uM using tert-butyl hydroperoxide as substrate preincubated for 5 mins followed by substrate addition measured for 6 mins by glutathione reductase enzyme coupled fluorescence assay relative to control.

The species entered for experiment [2] is Homo sapiens. Nature of the experiment: Activation of recombinant His-tagged human cytosolic GPX4 U46C mutant expressed in Escherichia coli M15 assessed as increase in oxidized glutathione-mediated oxidation of NADPH to NADP+ using tert-butyl hydroperoxide as substrate preincubated for 5 mins followed by substrate addition measured for 6 mins by glutathione reductase enzyme coupled fluorescence assay.

For experiment [3], the species on record is Homo sapiens. Nature of the experiment: Activation of recombinant His-tagged human cytosolic GPX4 U46C mutant expressed in Escherichia coli M15 assessed as increase in oxidized glutathione-mediated oxidation of NADPH to NADP+ at 0.4 to 250 uM using tert-butyl hydroperoxide as substrate preincubated for 5 mins followed by substrate addition measured for 6 mins by glutathione reductase enzyme coupled fluorescence assay relative to control.

A short description of experiment [4]: Binding affinity to recombinant His-tagged human cytosolic GPX4 U46C mutant expressed in Escherichia coli M15 by SPR analysis. (In SPR one partner is held on a chip, and binding of the other changes the refractive index at the surface.)
The species named for experiment [5] is Homo sapiens. The experiment is described as follows: Activation of recombinant human GPX4 D21A/U46C double mutant expressed in Escherichia coli M15 assessed as increase in oxidized glutathione-mediated oxidation of NADPH to NADP+ using tert-butyl hydroperoxide as substrate preincubated for 5 mins followed by substrate addition measured for 6 mins by glutathione reductase enzyme coupled fluorescence assay relative to GPX4 U46C mutant control.

The species named for experiment [6] is Homo sapiens. The experiment is described as follows: Activation of recombinant human GPX4 D23A/U46C double mutant expressed in Escherichia coli M15 assessed as increase in oxidized glutathione-mediated oxidation of NADPH to NADP+ using tert-butyl hydroperoxide as substrate preincubated for 5 mins followed by substrate addition measured for 6 mins by glutathione reductase enzyme coupled fluorescence assay relative to GPX4 U46C mutant control.

For experiment [7], the species on record is Homo sapiens. Nature of the experiment: Activation of recombinant human GPX4 D21A/D23A/U46C mutant expressed in Escherichia coli M15 assessed as increase in oxidized glutathione-mediated oxidation of NADPH to NADP+ using tert-butyl hydroperoxide as substrate preincubated for 5 mins followed by substrate addition measured for 6 mins by glutathione reductase enzyme coupled fluorescence assay relative to GPX4 U46C mutant control.

The nature of experiment [8]: Binding affinity to recombinant human GPX4 D21A/D23A double mutant expressed in Escherichia coli M15 by SPR analysis.
The target of experiment [9] is Phospholipid hydroperoxide glutathione peroxidase GPX4 (Mus musculus) (UniProt O70325). The experiment is described as follows: Activation of GPX4 in MEF assessed as increase in oxidized glutathione-mediated oxidation of NADPH to NADP+ using tert-butyl hydroperoxide as substrate preincubated for 5 mins followed by substrate addition measured for 6 mins by glutathione reductase enzyme coupled fluorescence assay. In kind it is cell-based.

Experiment [10] is described as follows: Zinc chelating activity in presence of ZnSO4 after 10 mins by crystal violet staining based assay.
Experiment [11] in a line: Iron chelating activity assessed as compound-Fe2+ complex formation after 10 mins by Prussian blue assay.
The target of experiment [12] is Phospholipid hydroperoxide glutathione peroxidase GPX4 (Mus musculus) (UniProt O70325). Nature of the experiment: Activation of GPX4 in MEF assessed as increase in […] protection against CHOOH-induced cell death at 200 uM. In kind it is cell-based.
Experiment [13] is described as follows: Antioxidant activity assessed as DPPH radical scavenging activity at 500 uM. In kind it is functional. Background: DPPH is a stable violet radical that fades when it is reduced.

These results are taken from ChEMBL document CHEMBL4308834, “Novel Allosteric Activators for Ferroptosis Regulator Glutathione Peroxidase 4” (J Med Chem, 2018).

Calls of active or inactive are those of the source. The rule behind the calls is not given here.

Chain of Phospholipid hydroperoxide glutathione peroxidase GPX4 (Mus musculus) (O70325 whole entry): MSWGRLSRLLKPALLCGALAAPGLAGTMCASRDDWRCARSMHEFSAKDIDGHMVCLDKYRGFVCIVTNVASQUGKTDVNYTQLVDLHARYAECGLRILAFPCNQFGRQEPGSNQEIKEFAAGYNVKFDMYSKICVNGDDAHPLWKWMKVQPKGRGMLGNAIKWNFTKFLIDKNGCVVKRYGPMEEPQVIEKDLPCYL

Regarding `O=S(=O)(NCCO)c1ccc(NC(=S)NC2CCCC2)cc1`, the Activity in the experiment filed under Homo sapiens [1] was less than 115%.

On to `CN1CCN(C(S)=Nc2ccc(S(N)(=O)=O)cc2)CC1`, for which, in the experiment listed under Homo sapiens [2], the Activity entry was “Dose-dependent effect” and the EC150 came to 285 µM. The maximal effect (Emax) (as a rule, the greatest response seen or fitted, relative to the assay's reference) in the experiment listed under Homo sapiens [3] stood at 200%. In addition, the Activity in the experiment filed under Homo sapiens [1] turned out to be 115%.

For `NCCNS(=O)(=O)c1ccc(NC(=S)NCc2ccc(Cl)cc2)cc1`, in the experiment listed under Homo sapiens [1], the Activity is less than 115%.

Turning to `CCNS(=O)(=O)c1ccc(NC(=S)NC2CCCC2)cc1`, the Activity in the experiment filed under Homo sapiens [1] is less than 115%.

With `NS(=O)(=O)c1ccc(NC(S)=NCc2ccccc2)cc1`, in the experiment listed under Homo sapiens [2], the Activity entry was “Dose-dependent effect” and the EC150 came to 255 µM. In the experiment listed under Homo sapiens [3], the maximal effect (Emax) came out at 300%. Besides, the Activity in the experiment listed under Homo sapiens [1] stood at 129%.

Turning to `CC(C)(C)NC(=S)Nc1ccc(S(=O)(=O)NCCN)cc1`, the EC150 in the experiment listed under Homo sapiens [2] is 29 µM. Further, the Emax in the experiment filed under Homo sapiens [3] was found to be 437%. Moreover, in the experiment filed under Homo sapiens [1], the Activity was 318%.

Consider `O=S(=O)(NCCO)c1ccc(NC(=S)NCc2ccc(Cl)cc2)cc1`, for which the Activity in the experiment listed under Homo sapiens [1] was less than 115%.

On to `NCCNS(=O)(=O)c1ccc(NC(=S)NC2CCCCCC2)cc1`, for which, in the experiment listed under Homo sapiens [1], the Activity is less than 115%.

`NCCCNS(=O)(=O)c1ccc(NC(=S)NC2CCCC2)cc1`: the EC150 in the experiment filed under Homo sapiens [2] is 301 µM. For the same molecule, in the experiment listed under Homo sapiens [3], the Emax came to 214%. For the same molecule, in the experiment filed under Homo sapiens [1], the Activity was found to be 121%.

For the molecule `NCCCCNS(=O)(=O)c1ccc(NC(=S)NC2CCCC2)cc1`, the Activity in the experiment listed under Homo sapiens [1] was less than 115%.

`CCNC(=S)Nc1ccc(S(=O)(=O)NCCN)cc1`: the Activity in the experiment filed under Homo sapiens [1] is less than 115%.

For the molecule `NS(=O)(=O)c1ccc(NC(=S)NCCO)cc1`, in the experiment listed under Homo sapiens [2], the Activity entry was “Dose-dependent effect” and the EC150 came to 147 µM. Further, the Emax in the experiment listed under Homo sapiens [3] is 225%. Further, the Activity in the experiment listed under Homo sapiens [1] stood at 167%.

Regarding `CNCCNS(=O)(=O)c1ccc(NC(=S)NC2CCCC2)cc1`, in the experiment listed under Homo sapiens [2], the EC150 is 121 µM. Further, the Emax in the experiment filed under Homo sapiens [3] was 209%. The Activity in the experiment filed under Homo sapiens [1] stood at 167%.

With `NCCNS(=O)(=O)c1ccc(NC(=S)NC2CCCCC2)cc1`, the Activity in the experiment filed under Homo sapiens [1] was less than 115%.

`NCCNS(=O)(=O)c1ccc(NC(=S)NC2CCCC2)cc1`: the EC150 in the experiment listed under Homo sapiens [2] was determined as 20 µM; in the experiment listed under Homo sapiens [5], 367 µM; in the experiment filed under Homo sapiens [6], 235 µM; in the experiment listed under Homo sapiens [7] it was 382 µM; in experiment [9] it was 61 µM. In addition, the Emax in the experiment listed under Homo sapiens [3] was determined as 279%. Also, the Kd (commonly the equilibrium constant for the complex coming apart) in experiment [4] was 19 µM; in experiment [8], 374 µM. Besides, the Activity is 219% in the experiment listed under Homo sapiens [1] and “Dose-dependent effect” in experiment [9]. Moreover, the outcome in experiment [10], in experiment [11] and in [13] was inactive. The outcome in [12] was Active.
